Six compounds from patent publication US10703756B2, “Pyrrolo[2,3-D]pyrimidinyl, pyrrolo[2,3-B]pyrazinyl, pyrrolo[2,3-B]pyridinyl acrylamides and epoxides thereof” (Pfizer Inc., priority 2015, dated 2020) can be followed below.

For test [1], the system named is IL-15 induced STAT5 phosphorylation in human whole blood lymphocytes. Kind of test: HWB IL-15 Induced STAT5 Phosphorylation Assay. As to conditions: Lymphocyte, IL-15 final 50 ng/ml, read-out: HWB_IL15 pSTAT5 IC50. It counts as cell-based. The method, boiled down: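 Heparinised human whole blood preincubated with compound (0.2% DMSO final) 45 min at 37° C, then stimulated with human IL-15 (50 ng/ml final) for 15 min. After lyse/fix and Perm Buffer III permeabilisation, stained overnight at 4° C with AlexaFluor647 anti-phospho-STAT5; read by flow cytometry gated on total lymphocytes.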

The target in test [2] is T1, JAK3 enzyme (Homo sapiens, UniProt P52333).
T1 sequence (P52333 1-1124): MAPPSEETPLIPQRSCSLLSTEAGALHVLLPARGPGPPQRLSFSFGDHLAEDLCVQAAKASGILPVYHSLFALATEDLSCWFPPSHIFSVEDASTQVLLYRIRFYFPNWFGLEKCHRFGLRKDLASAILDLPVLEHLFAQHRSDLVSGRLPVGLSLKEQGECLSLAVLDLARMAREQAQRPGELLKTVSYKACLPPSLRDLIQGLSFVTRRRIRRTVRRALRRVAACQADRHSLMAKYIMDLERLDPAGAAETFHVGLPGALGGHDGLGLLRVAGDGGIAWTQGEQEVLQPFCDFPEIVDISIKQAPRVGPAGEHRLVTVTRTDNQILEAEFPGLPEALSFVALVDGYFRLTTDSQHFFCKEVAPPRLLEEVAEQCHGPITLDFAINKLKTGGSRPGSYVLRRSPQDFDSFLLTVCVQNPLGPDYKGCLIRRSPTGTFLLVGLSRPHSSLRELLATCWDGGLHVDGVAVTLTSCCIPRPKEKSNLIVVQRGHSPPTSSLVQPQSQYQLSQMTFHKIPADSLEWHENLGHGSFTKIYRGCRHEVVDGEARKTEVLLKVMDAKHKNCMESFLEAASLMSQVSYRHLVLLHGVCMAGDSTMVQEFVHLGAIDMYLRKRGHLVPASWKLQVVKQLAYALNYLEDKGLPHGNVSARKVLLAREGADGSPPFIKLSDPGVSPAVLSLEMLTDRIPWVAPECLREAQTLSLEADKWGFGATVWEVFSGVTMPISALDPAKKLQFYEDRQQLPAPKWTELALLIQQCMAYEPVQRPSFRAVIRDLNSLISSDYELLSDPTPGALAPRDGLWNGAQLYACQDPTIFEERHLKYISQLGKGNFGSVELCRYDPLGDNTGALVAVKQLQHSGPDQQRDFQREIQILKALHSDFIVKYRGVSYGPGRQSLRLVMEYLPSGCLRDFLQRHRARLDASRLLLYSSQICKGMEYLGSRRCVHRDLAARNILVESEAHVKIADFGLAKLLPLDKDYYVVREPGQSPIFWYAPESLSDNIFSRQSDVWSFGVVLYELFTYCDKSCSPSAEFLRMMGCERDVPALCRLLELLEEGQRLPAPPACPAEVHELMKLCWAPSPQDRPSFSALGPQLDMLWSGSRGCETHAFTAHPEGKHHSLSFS
The test is described as follows: JAK Caliper Enzyme Assay at 4 μM ATP. It counts as biochemical. Summed up:
(§1)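 Test compounds were diluted in DMSO as an 11-point half-log series from a 600 μM top concentration (DMSO series, not final assay level). Enzyme amount and incubation time were set per enzyme prep to reach 20%-30% phosphorylation. Phosphorylated and unphosphorylated peptide were resolved by microfluidic separation.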

Test [3] addresses T1, JAK3 enzyme. The test is described as follows: JAK Caliper Enzyme Assay at 1 mM ATP. It is filed as biochemical. The method, boiled down:
as §1

In test [4] the test system is IL-15 induced P-STAT5 in human PBMC. Kind of test: PBMC IL-15 Induced P-STAT5. It counts as cell-based. As to conditions: human PBMC, IL-15 final 41 ng/mL; read-out: PBMC IL15_pSTAT5_IC50. The method, boiled down: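 Thawed human PBMC, rested in human plasma, were preincubated 15 min at 37 °C with compound (0.2% DMSO), then stimulated 15 min with IL-15 at 41 ng/mL final. After paraformaldehyde fixation and methanol permeabilisation, Alexa Fluor 647 anti-STAT5 staining overnight at 4 °C was analysed by flow cytometry on total lymphocytes.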

Molecules are shown by their SMILES.

`C=CC(=O)N1CC[C@H](Nc2cnc3[nH]cc(C(=O)NCCC(F)(F)F)c3n2)[C@H](OC)C1` [Example 305, 2-{[(3R,4S)-1-acryloyl-3-methoxypiperidin-4-yl]amino}-N-(3,3,3-trifluoropropyl)-5H-pyrrolo[2,3-b]pyrazine-7-carboxamide]: the IC50 came to 6380 nM in test [1], 0.496 nM in test [2], 53 nM in test [3] and 278 nM in test [4].

With `C=CC(=O)N1CCN(c2cnc3[nH]cc(C(=O)NC4CCCC4)c3n2)CC1(C)C` [Example 334, 2-(4-acryloyl-3,3-dimethylpiperazin-1-yl)-N-cyclopentyl-5H-pyrrolo[2,3-b]pyrazine-7-carboxamide], the IC50 in test [1] was 3920 nM; in test [2], 0.703 nM; in test [3], 93 nM; in test [4] it was 73.6 nM.

`C=CC(=O)N1CCC(Nc2cnc3[nH]cc(C(=O)NCc4ccc(Cl)cn4)c3n2)CC1` [Example 186, 2-[(1-acryloylpiperidin-4-yl)amino]-N-[(5-chloropyridin-2-yl)methyl]-5H-pyrrolo[2,3-b]pyrazine-7-carboxamide]: the IC50 in test [1] came to 870 nM; in test [2], 0.485 nM; in test [3], 15 nM; in test [4], 213 nM.

As for `C=CC(=O)N1CC[C@@H](Nc2cnc3[nH]cc(C(=O)NCCC(F)(F)F)c3n2)[C@@H](OC)C1` [Example 278, 2-{[(3S,4R)-1-acryloyl-3-methoxypiperidin-4-yl]amino}-N-(3,3,3-trifluoropropyl)-5H-pyrrolo[2,3-b]pyrazine-7-carboxamide], the IC50 in test [1] came to 2460 nM; in test [2] it was 1.23 nM; in test [3] it was 70 nM; in test [4] it was 272 nM.

Regarding `C=CC(=O)N1CC[C@@H](Nc2cnc3[nH]cc(C(=O)NC4CCCC4)c3n2)[C@@H](OC)C1` (racemic) [Example 299, Racemic-2-{[(3S,4R)-1-acryloyl-3-methoxypiperidin-4-yl]amino}-N-cyclopentyl-5H-pyrrolo[2,3-b]pyrazine-7-carboxamide], the IC50 in test [1] stood at 913 nM; in test [2], 1.21 nM; in test [3], 57 nM; in test [4], 305 nM.

On to `C=CC(=O)N1CCC(Nc2cnc3[nH]cc(C(=O)NCC(F)(F)C(F)(F)F)c3n2)CC1` [Example 179, 2-[(1-acryloylpiperidin-4-yl)amino]-N-(2,2,3,3,3-pentafluoropropyl)-5H-pyrrolo[2,3-b]pyrazine-7-carboxamide], for which the IC50 in test [1] turned out to be 850 nM; in test [2], 0.596 nM; in test [3], 18 nM; in test [4] it was 94.8 nM.
